Patent US20140315975A1, “APOPTOSIS-INDUCING AGENT” (NITTO DENKO CORPORATION, priority 2011, published 2014)
Residues, ends and D or L forms follow the SMILES beside them. *: point of attachment. Cbz = O=C(OCc1ccccc1)*

Experiments:
Assay type in all cases: cell-based
LC3 = assay: Autophagy induction by LC3 western blotting; details: M7609 cells, western blot with anti-LC3 antibody (FIG. 8)
Method: Induction of autophagy in GST-π knockdown cells was further analyzed by a western blot analysis of LC3. GST-π knockdown cells obtained by the procedure of Example 1 (2) were plated on a cover slip placed in a 35 mm plastic tissue culture dish so as to give 1×10^5 cells/2 mL. After incubating for a predetermined time, a cell extract was collected and subjected to a western blot analysis. A reaction with a transfer membrane was carried out at 4° C. for 16 hours using anti-LC3B antibody (SIGMA) as a primary antibody. Detection of LC3 molecules was carried out using a chemoluminescent reagent after a reaction with HRP-labeled secondary antibody. Whether or not autophagy was induced was evaluated by a shift of LC3 from type I (18 kDa) to type II (16 kDa).

GST-π = assay: Western blot analysis of GST-π knockdown; details: M7609 cells, siRNA transfection, western blot (FIG. 1a)
Method: On the day before transfection, M7609 cells were plated on a 100 mm plastic tissue culture dish using 10% FBS-containing RPMI-1640 medium containing no antibiotic so as to give 1×10^6 cells/10 mL. 600 pmol of GST-π siRNA (SEQ ID No: 1: […], siRNA ID#2385, Ambion) was added to 1 mL of Opti-MEM I Reduced Serum Medium (GIBCO) and mixed gently. Subsequently, 35 μL of Lipofectamine RNAiMAX (Invitrogen) was diluted in 1 mL of Opti-MEM I Reduced Serum Medium and mixed gently. The diluted GST-π siRNA and the diluted Lipofectamine RNAiMAX were combined and gently mixed, and then incubated at room temperature for 10 min. During this time, the medium was replaced with 10 mL of Opti-MEM I Reduced Serum Medium. After the 10 min. incubation, the complex between GST-π siRNA and Lipofectamine RNAiMAX was added to the cells and incubated at 37° C. under an atmosphere containing 5% CO2. After 5 hours incubation, it was replaced with 10 mL of 10% FBS-containing RPMI-1640 medium containing no antibiotic. […] On the 1st, 2nd, 3rd, and 4th days after transfection with GST-π siRNA, the number of cells was counted, and knockdown of GST-π was examined. Knockdown of GST-π was analyzed by a western blot method as described below.
Western blot analysis of GST-π knockdown was carried out using cells harvested at above-mentioned each point of time after transfection with GST-π siRNA. […] The cell extract thus obtained was subjected to quantitative protein analysis using a Micro BCA Protein Assay Kit (Thermo SCIENTIFIC) (GST-π siRNA transfectant: 4.35 μg/μL, Scramble siRNA transfectant: 4.56 μg/μL). […] A reaction with a chemiluminescent substrate was then carried out at room temperature for 1 min., and then this chemiluminescence was detected using an X-ray film. Washing between operations was carried out three times by shaking for 5 min using PBS-T. Furthermore, after transfection with siRNA, plating on a 60 mm plastic tissue culture dish was carried out to give 1.0×10^5 cells/5 mL, and the total cell count in the dish was measured using a hemocytometer up to the 4th day.

M7609 cells [1] = assay: TUNEL staining of GST-π knockdown cells with autophagy inhibitor; details: GST-π siRNA + 1 mM or 5 mM 3-MA
Method: (§1) Transfection of GST-π siRNA was carried out in accordance with the procedure of Example 1 (2), the medium was then replaced with an antibiotic-free medium, and incubation was carried out for 3 hours. Cells were plated on a cover slip placed in a 35 mm plastic tissue culture dish, the autophagy inhibitor 3-methyl adenine (3-MA, SIGMA) was added so as to give 1 or 5 mM, and following this culturing was carried out for a predetermined time.
The cells cultured in (1) were subjected to TUNEL staining in the same way as for Example 3 (4).

M7609 cells [2] = assay: Autophagy-positive cells in GST-π knockdown cells with autophagy inhibitor (LC3 immunofluorescence); details: GST-π KD M7609 cells + 3-MA (FIG. 16)
Method: as §1
The cells cultured in (1) were subjected to immunofluorescence staining using anti-LC3 antibody in the same way as for Example 3 (1).

p-Raf-1 (Ser338) = assay: Effect of proteasome inhibitor on Raf-1 expression under GST-π knockdown; details: 5 μM MG132 for 4 hours versus DMSO (FIG. 4)
Method: Culturing of M7609 cells and transfection with GST-π siRNA were carried out in accordance with the procedures of Example 1 (1) and (2). On the 2nd day after GST-π siRNA transfection culturing was carried out for 16 hours in a serum-free medium. After treating with 5 μM MG132 for 4 hours, a cell extract was collected. As a control for the MG132 treatment, treatment with 0.05% DMSO was carried out in the same manner. The cell extract thus obtained was subjected to quantitative protein analysis using a Micro BCA Protein Assay Kit (Scramble siRNA-DMSO treated group: 3.36 μg/μL, Scramble siRNA-MG132 treated group: 3.16 μg/μL, GST-π siRNA-DMSO treated group: 3.12 μg/μL, GST-π siRNA-MG132 treated group: 3.16 μg/μL). 20 μg of the cell extract was subjected to SDS-PAGE, and then western blot analysis was carried out in the same way as for Example 1 (3) using an anti-p-Raf-1 (Ser338) antibody and an anti-Raf-1 antibody.

p-EGFR (Tyr1068) = assay: Effect of proteasome inhibitor on p-EGFR expression under GST-π knockdown; details: GST-π KD cells, 5 μM MG132 for 2 hours (FIG. 12)
Method: Culturing of M7609 cells and transfection with GST-π siRNA were carried out in accordance with the procedures of Example 1 (1) and (2). On the 2nd day after transfection with GST-π siRNA, the cells were cultured in serum-free medium for 16 hours. After treating with 5 μM MG132 for 2 hours, a cell extract was collected. As a control for the MG132 treatment, treatment with 0.05% DMSO was carried out in the same manner. The cell extract thus obtained was subjected to quantitative protein analysis using a Micro BCA Protein Assay Kit (Scramble siRNA-DMSO treated group: 11.98 μg/μL, Scramble siRNA-MG132 treated group: 12.29 μg/μL, GST-π siRNA-DMSO treated group: 8.91 μg/μL, GST-π siRNA-MG132 treated group: 9.24 μg/μL). After 80 μg of the cell extract was subjected to SDS-PAGE, a western blot analysis was carried out using anti-p-EGFR (Tyr1068) antibody and anti-EGFR antibody.

Scramble siRNA: control Scramble siRNA (SEQ ID No: 2: CGAUUCGCUAGACCGGCUUCAUUGCAG, Hokkaido System Science Co., Ltd.) (chemistry not given here) [reference compound]
expression of type I and type II LC3 (LC3): low | expression of GST-π (GST-π): not suppressed

Cn1cnc(N)c2ncnc1-2 [3-MA, 3-methyladenine]
apoptosis-positive cells (TUNEL stained images) (M7609 cells [1]; 2nd to 4th day (FIG. 17 versus FIG. 9)): increased markedly | induction of apoptosis (percentage apoptosis over time) (M7609 cells [1]; dose-dependent (FIG. 18)): further induced | autophagy increased by knockdown of GST-π (proportion of autophagy-positive cells) (M7609 cells [2]): suppressed

CC(C)C[C@@H](C=O)NC(=O)[C@H](CC(C)C)NC(=O)[C@H](CC(C)C)NC(=O)OCc1ccccc1 [MG132] (Cbz-Leu-Leu-Leu-aldehyde)
abundance of phosphorylated Raf protein (p-Raf-1 (S338)) (p-Raf-1 (Ser338); GST-π siRNA transfectant): increased | abundance of phosphorylated Raf protein (p-Raf-1 (S338)) (p-Raf-1 (Ser338); Scramble siRNA transfectant): no change | expression level of p-EGFR (p-EGFR (Tyr1068)): recovered
